Test results published in ChEMBL document CHEMBL1134567, “Prediction of the aroma quality and the threshold values of some pyrazines using artificial neural networks” (J Med Chem, 2001).

Test: Evaluated for its olfactory detection threshold value and indicates quantitative measure of odour impression; No threshold value.
Type: functional
For `Cc1cnc(C)c(CCC(C)C)n1`, the “Log 1/C” value was “No threshold value”.
In the case of `COc1nc(C)cnc1C(C)=O`, the “Log 1/C” value is reported as “No threshold value”.
With `CCSc1nccnc1C` the “Log 1/C” value was “No threshold value”.
With `CCc1cnc(C)c(C)n1` the “Log 1/C” value was “No threshold value”.
For `CCSc1nccnc1CC`, the “Log 1/C” value was “No threshold value”.
In the case of `COc1nc(C(C)=O)c(OC)nc1C`, the “Log 1/C” value is reported as “No threshold value”.
In the case of `Cc1ncc(CC(C)C)nc1C`, the “Log 1/C” value is reported as “No threshold value”.
With `Cc1nc(C)c(C)nc1C` the “Log 1/C” value was “No threshold value”.
With `COc1nc(C)cnc1C` the “Log 1/C” value was “No threshold value”.
For `COc1nc(C)cnc1C(C)(C)O`, the “Log 1/C” value was “No threshold value”.
For `COc1ncc(C)nc1C(C)(C)O`, the “Log 1/C” value was “No threshold value”.
For `CCc1ncc(C)nc1C`, the “Log 1/C” value was “No threshold value”.
For `CCOc1nccnc1C`, the “Log 1/C” value was “No threshold value”.
In the case of `CCc1nc(C)cnc1C`, the “Log 1/C” value is reported as “No threshold value”.

Test: Evaluated for its olfactory detection threshold value and indicates quantitative measure of odour impression
Type: functional
In the case of `CCC(C)c1nccnc1OC` (stereo not drawn), the Log 1/C is reported as 6.62.
Compound `CCOc1ncc(CC(C)CC)nc1C` (stereo not drawn) has a Log 1/C of 4.54.
In the case of `CCCC(C)Cc1nccnc1OC` (stereo not drawn), the Log 1/C is reported as 7.38.
Work on `CCCCCc1nccnc1SCC` yielded a Log 1/C of 5.32.
`CCOc1ncc(C(C)CC)nc1C` (stereo not drawn) showed a Log 1/C of 4.21.
`CCC(C)Cc1nccnc1OC` (stereo not drawn) showed a Log 1/C of 7.18.
`CCCC(C)Cc1cnc(SC)c(C)n1` (stereo not drawn) gave a Log 1/C of 4.27.
`C=CCCCc1nccnc1OC` gave a Log 1/C of 6.77.
`Cc1ncc(C(C)C)nc1C` showed a Log 1/C of 3.88.
`CCCc1nccnc1C` gave a Log 1/C of 3.36.
`CCCc1nccnc1SC` showed a Log 1/C of 5.23.
`CCCCCc1nccnc1OC` gave a Log 1/C of 6.95.
`C/C=C/CCc1nccnc1OC` gave a Log 1/C of 6.1.
`COc1nccnc1CCC(C)C` showed a Log 1/C of 7.46.
`CCCCCCc1nccnc1OC` showed a Log 1/C of 6.44.
With `CCCCc1nccnc1SCC` the Log 1/C was 4.69.
Work on `CCCCCCCc1nccnc1OC` yielded a Log 1/C of 6.9.
`CC(C)Cc1cncc(N(C)C)n1` showed a Log 1/C of 1.55.
Work on `C/C=C\CCc1nccnc1OC` yielded a Log 1/C of 5.52.
Work on `CC(C)c1cnc(Oc2ccccc2)cn1` yielded a Log 1/C of 2.79.
For `CC(C)Cc1cnccn1`, the Log 1/C was 2.53.
`COc1nc(C)cnc1C(C)C` gave a Log 1/C of 6.57.
With `COc1nc(C)c(C)nc1CC(C)C` the Log 1/C was 2.79.
`COc1nccnc1CCCC(C)C` gave a Log 1/C of 7.51.
`COc1nc(C(C)C)c(OC)nc1C` showed a Log 1/C of 3.45.
With `CCC(C)CCc1cnc(OC)c(C)n1` (stereo not drawn) the Log 1/C was 5.24.
`Cc1nccnc1CC(C)C` gave a Log 1/C of 3.06.
In the case of `COc1ncc(CC(C)C)nc1C`, the Log 1/C is reported as 6.
In the case of `CSc1ncc(CC(C)C)nc1C`, the Log 1/C is reported as 4.12.
With `CCCCCc1cnc(C)c(C)n1` the Log 1/C was 3.3.
With `CCCCCc1nccnc1OCC` the Log 1/C was 6.38.
Compound `Cc1nc(CC(C)C)cnc1Oc1ccccc1` has a Log 1/C of 2.88.
Work on `CCc1nccnc1CC` yielded a Log 1/C of 5.13.
With `COc1nccnc1C(C)C` the Log 1/C was 6.8.
`COc1ncc(C)nc1CC(C)C` showed a Log 1/C of 4.84.
In the case of `CCCCCc1cnccn1`, the Log 1/C is reported as 4.48.
Work on `CCSc1cnc(CCC(C)CC)cn1` (stereo not drawn) yielded a Log 1/C of 3.63.
Work on `CCC(C)Cc1cnc(OC)c(C)n1` (stereo not drawn) yielded a Log 1/C of 7.29.
Compound `COc1nc(C)cnc1CC(C)C` has a Log 1/C of 5.84.
Work on `Cc1nccnc1C(C)C` yielded a Log 1/C of 3.93.
Work on `CCCc1nccnc1OC` yielded a Log 1/C of 6.1.
`CSc1nccnc1C(C)C` showed a Log 1/C of 6.55.
Compound `CCSc1ncc(CC(C)CC)nc1C` (stereo not drawn) has a Log 1/C of 4.95.
`Cc1nccnc1N(C)C` gave a Log 1/C of 2.88.
`COc1ncc(C)nc1C(C)C` showed a Log 1/C of 6.52.
`COc1nc(OC)c(C(C)C)nc1C` showed a Log 1/C of 2.89.
`CCOc1ncc(CC(C)C)nc1C` gave a Log 1/C of 4.08.
`COc1nc(C)c(OC)nc1C` gave a Log 1/C of 2.97.
With `CCOc1ncc(CCC(C)CC)nc1C` (stereo not drawn) the Log 1/C was 4.87.
`COc1nc(C(C)C)c(OC)nc1C(C)C` gave a Log 1/C of 2.52.
Compound `COc1nccnc1CC(C)C` has a Log 1/C of 7.47.
Work on `CSc1nccnc1CC(C)C` yielded a Log 1/C of 5.74.
Work on `CCCCc1cnccn1` yielded a Log 1/C of 2.53.
`CCCCCc1nccnc1SC` showed a Log 1/C of 6.21.
With `CCC(C)CCc1cnc(Oc2ccccc2)c(C)n1` (stereo not drawn) the Log 1/C was 3.29.
`CCCCc1nccnc1OC` showed a Log 1/C of 6.52.

Test: Olfactory detection threshold value and quantitative measure of odour impression; No threshold value.
Type: functional
For `COc1nc(CC(C)C)cnc1CC(C)C`, the “Log 1/C” value was “No threshold value”.
For `CSc1cncc(C)n1`, the “Log 1/C” value was “No threshold value”.
With `Cc1nccnc1C` the “Log 1/C” value was “No threshold value”.
With `Cc1cnc(C)c(C)n1` the “Log 1/C” value was “No threshold value”.
With `CNc1nccnc1C` the “Log 1/C” value was “No threshold value”.
For `CCCCCCCCc1nccnc1Sc1ccccc1`, the “Log 1/C” value was “No threshold value”.
In the case of `CCSc1cnccn1`, the “Log 1/C” value is reported as “No threshold value”.
For `CCc1nccnc1OC`, the “Log 1/C” value was “No threshold value”.
With `COc1cncc(C)n1` the “Log 1/C” value was “No threshold value”.
With `COc1nccnc1C` the “Log 1/C” value was “No threshold value”.
For `CCCCCCC(C)Cc1nccnc1OC` (stereo not drawn), the “Log 1/C” value was “No threshold value”.
In the case of `CSc1cnccn1`, the “Log 1/C” value is reported as “No threshold value”.
In the case of `CSc1nccnc1C`, the “Log 1/C” value is reported as “No threshold value”.
In the case of `CCCC(C)c1nccnc1OC` (stereo not drawn), the “Log 1/C” value is reported as “No threshold value”.
For `Cc1cnc(C)cn1`, the “Log 1/C” value was “No threshold value”.
With `CCOc1cnccn1` the “Log 1/C” value was “No threshold value”.
In the case of `CCCCOc1cnccn1`, the “Log 1/C” value is reported as “No threshold value”.
With `COc1nccnc1CCCCCCC(C)C` the “Log 1/C” value was “No threshold value”.
For `CCc1cnccn1`, the “Log 1/C” value was “No threshold value”.
In the case of `COc1cnccn1`, the “Log 1/C” value is reported as “No threshold value”.
For `CCOc1nccnc1CC(C)C`, the “Log 1/C” value was “No threshold value”.

Test: Evaluated for its olfactory detection threshold value and indicates quantitative measure of odor impression
Type: functional
`CCCCCCCCc1nccnc1OC` showed a Log 1/C of 6.57.
In the case of `CCCCCCCCCCc1nccnc1OCC`, the Log 1/C is reported as 3.64.
`CCCCCCCCc1nccnc1SC` gave a Log 1/C of 5.53.
Compound `CCCCCCCCc1nccnc1OCC` has a Log 1/C of 5.07.
Compound `CCCCCCCCCCc1nccnc1OC` has a Log 1/C of 3.8.
For `CCc1cnc(C)cn1`, the Log 1/C was 2.45.
In the case of `CCCCCCCCc1nccnc1SCC`, the Log 1/C is reported as 5.1.
